pIC50: −log10 of the molar value.
How the values were obtained:
[1] = test system: melanoma cell line A375; assay: In vitro dose response study on A375 proliferation; format: cell-based; settings: Homo sapiens, A-375, 96 h, graded concentration
Procedure: The melanoma cell line A375 was treated during 96 h with graded concentration of compounds 42 and 43. At the end of the culture period, the cell concentration was determined.

[2] = test system: A549; assay: Cancer cell viability, trypan blue exclusion assay; format: cell-based; settings: Homo sapiens, normalized to DMSO-treated control
Procedure: (§1) Cancer Cell Proliferation Assay (A375, A549, PC3, HT-29, MiaPaca-2 and MCF-7)
(§2) The tested cancer cells are the following: human melanoma cells (A375), lung carcinoma cells (A549), prostate cancer cells (PC3), colon adenocarcinoma (HT29), pancreas carcinoma (MiaPaca 2) and breast carcinoma (MCF-7).
(§3) Cells were counted using a Malassez chamber. The average and standard deviation were calculated from triplicate experiments. Antiproliferative effects were evaluated by trypan blue exclusion assay. Briefly, cells were seeded into 12-well plate and grown in media supplemented with indicated compound at 1 or 10 μM for 48 h or 96 h. Cells were washed with PBS and detached by trypsinization, collected and colored by trypan blue.
(§4) As a comparison, cell viability was also determined and calculated as follow: Viability (%)=100−[(dead cell number/total cells)*100].

[3] = test system: HT29; assay: Cancer cell viability, trypan blue exclusion assay; format: cell-based; settings: Homo sapiens, HT-29, normalized to DMSO-treated control
Procedure: as §1, §2, §3, §4

[4] = test system: MCF-7; assay: Cancer cell viability, trypan blue exclusion assay; format: cell-based; settings: Homo sapiens, MCF7, normalized to DMSO-treated control
Procedure: as §1, §2, §3, §4

[5] = test system: PC3; assay: Cancer cell viability, trypan blue exclusion assay; format: cell-based; settings: Homo sapiens, PC-3, normalized to DMSO-treated control
Procedure: as §1, §2, §3, §4

[6] = test system: MiaPaca-2; assay: Cancer cell viability, trypan blue exclusion assay; format: cell-based; settings: Homo sapiens, MIA PaCa-2, normalized to DMSO-treated control
Procedure: as §1, §2, §3, §4

[7] = test system: PC3; assay: Cancer cell proliferation assay; format: cell-based, human; settings: 10 μM, normalized to DMSO-treated control
Procedure: as §1, §2, §3
Dead and living cells were counted and proliferation was calculated as follow: Proliferation (%)=[(treated cell number/untreated cells number)*100].

[8] = Melanocyte viability assay (MHN); format: cell-based; settings: human, MHN melanocytes, 10 μM for 96 h, normalized to DMSO-treated control, read-out: Heathly Cell Viability MHN
Procedure: Melanocyte Viability Assay (MHN)
Cell viability effects were evaluated by trypan blue exclusion assay. Briefly, cells were seeded into 12-well plate and grown in media supplemented with indicated compound at 10 μM for 96 h. Cells were washed with PBS and detached by trypsinization, collected and colored by trypan blue. Dead and living cells were counted and cell viability was calculated as follow: Viability (%)=100−[(dead cell number/total cells)*100].

[9] = test system: A375; assay: Cancer cell viability, trypan blue exclusion assay; format: cell-based; settings: Homo sapiens, A-375, normalized to DMSO-treated control
Procedure: as §2
Cells were counted using a Malassez chamber. The average and standard deviation were calculated from triplicate experiments. Antiproliferative effects were evaluated by trypan blue exclusion assay. […] Cells were washed with PBS and detached by trypsinization, collected and colored by trypan blue.
as §4

SMILES	pIC50 [1]	viability at 10 µM [2] [%]	viability at 10 µM [3] [%]	viability at 10 µM [4] [%]	viability at 10 µM [5] [%]	viability at 10 µM [6] [%]	Cancer Cell Proliferation [7] [%]	viability at 96 h, 10 μM [8] [%]	viability at 10 µM [9] [%]
COc1ccc(Nc2ccnc3cc(Cl)ccc23)cc1O [Compound 43, 7-chloro-N-(3-(hydroxy)-4-(methoxy)phenyl)quinolin-4-amine]	5.74	99.8	85.8	99.6	94.6	97.6	55.0		
COCCOc1ccc(Nc2ccnc3cc(Cl)ccc23)cc1 [Compound 42, 7-chloro-N-(4-(2-methoxyethoxy)phenyl)quinolin-4-amine]	6.38	99.7	97.3	97.2	98.9	100		99	99.3
